ChEMBL document CHEMBL3407375, “Substituted pyrrolidin-2-ones: Centrally acting orexin receptor antagonists promoting sleep. Part 2” (Bioorg Med Chem Lett, 2015)

Experiments:
[1] = Ratio of drug level in brain to plasma in Wistar rat at 100 mg/kg, po afer 3 hrs; type: ADME, organism-based; set-up: dose 100 mg/kg, route oral; details: read-out: BPR
Rattus norvegicus [2] = assay: Induction of sleep in Wistar rat assessed as time spent in quiet wake at 100 mg/kg, po after 12 hrs (reference value: 19.5%); type: functional
Rattus norvegicus [3] = assay: Induction of sleep in Wistar rat assessed as time spent in active wake at 100 mg/kg, po after 12 hrs (reference value: 44.6%); type: functional
Cytochrome P450 2D6 [4] = biological target: T1, Cytochrome P450 2D6 (Homo sapiens, UniProt P10635); assay: Inhibition of CYP2D6 (unknown origin); type: ADME
Rattus norvegicus [5] = assay: Induction of sleep in Wistar rat assessed as decrease in time spent in active wake at 100 mg/kg, po after 12 hrs relative to control; type: functional
Rattus norvegicus [6] = assay: Induction of sleep in Wistar rat assessed as increase in time spent in REM sleep at 100 mg/kg, po after 12 hrs relative to control; type: functional
Rattus norvegicus [7] = assay: Induction of sleep in Wistar rat assessed as decrease in home cage activity at 100 mg/kg, po after 12 hrs relative to control; type: functional
[8] = Intrinsic metabolic clearance in rat liver microsomes at 1 uM; type: ADME; details: read-out: CLH
Cytochrome P450 2C9 [9] = biological target: T2, Cytochrome P450 2C9 (Homo sapiens, UniProt P11712); assay: Inhibition of CYP2C9 (unknown origin); type: ADME
Rattus norvegicus [10] = assay: Induction of sleep in Wistar rat assessed as time spent in REM sleep at 100 mg/kg, po after 12 hrs (reference value: 6%); type: functional
MDR1 [11] = assay: Passive apparent permeability from apical to basolateral side in MDCK cells expressing human MDR1; type: ADME, cell-based, Canis lupus familiaris; details: dog
Cytochrome P450 3A4 [12] = biological target: T3, Cytochrome P450 3A4 (Homo sapiens, UniProt P08684); assay: Inhibition of CYP3A4 (unknown origin) using testosterone as marker substrate; type: ADME
Cytochrome P450 2C9 [13] = biological target: T2, Cytochrome P450 2C9; assay: Time dependent inhibition of CYP2C9 (unknown origin); type: ADME
MDR1 [14] = assay: Passive apparent permeability from basolateral to apical side in MDCK cells expressing human MDR1; type: ADME, cell-based, Canis lupus familiaris; details: dog
Rattus norvegicus [15] = assay: Induction of sleep in Wistar rat assessed as increase in time spent in non-REM sleep at 100 mg/kg, po after 12 hrs relative to control; type: functional
[16] = Intrinsic metabolic clearance in human liver microsomes at 1 uM; type: ADME; details: read-out: CLH
Cytochrome P450 2D6 [17] = biological target: T1, Cytochrome P450 2D6; assay: Time dependent inhibition of CYP2D6 (unknown origin); type: ADME
Cytochrome P450 3A4 [18] = biological target: T3, Cytochrome P450 3A4; assay: Inhibition of CYP3A4 (unknown origin); type: ADME
Cytochrome P450 3A4 [19] = biological target: T3, Cytochrome P450 3A4; assay: Time dependent inhibition of CYP3A4 (unknown origin); type: ADME
Rattus norvegicus [20] = assay: Induction of sleep in Wistar rat assessed as time spent in non-REM sleep at 100 mg/kg, po after 12 hrs (reference value: 29.8%); type: functional
[21] = Drug level in Wistar rat brain measured per gram of tissue at 100 mg/kg, po after 3 hrs; type: ADME, organism-based; set-up: dose 100 mg/kg, route oral; details: read-out: Drug uptake
[22] = biological target: Orexin/Hypocretin receptor type 1 (Homo sapiens, UniProt O43613); assay: Antagonist activity at human orexin 1 receptor expressed in CHO cells assessed as inhibition of orexin-A-induced calcium mobilization by FLIPR assay; type: functional, cell-based
[23] = Plasma protein binding in Wistar rat at 100 mg/kg, po after 3 hrs; type: ADME, organism-based; set-up: dose 100 mg/kg, route oral; details: read-out: PPB
[24] = Drug level in Wistar rat plasma at 100 mg/kg, po after 3 hrs; type: ADME, organism-based; set-up: dose 100 mg/kg, route oral
Orexin receptor type 2 = Orexin receptor type 2 (Homo sapiens, UniProt O43614); assay: Antagonist activity at human orexin 2 receptor expressed in CHO cells assessed as inhibition of orexin-A-induced calcium mobilization by FLIPR assay; type: functional, cell-based
Rattus norvegicus [25] = assay: Induction of sleep in Wistar rat assessed as time spent in quiet wake at 100 mg/kg, po after 12 hrs (reference value: 32.8%); type: functional
Rattus norvegicus [26] = assay: Induction of sleep in Wistar rat assessed as time spent in non-REM sleep at 100 mg/kg, po after 12 hrs (reference value: 32.1%); type: functional
Rattus norvegicus [27] = assay: Induction of sleep in Wistar rat assessed as time spent in REM sleep at 100 mg/kg, po after 12 hrs (reference value: 4.7%); type: functional
Rattus norvegicus [28] = assay: Induction of sleep in Wistar rat assessed as time spent in active wake at 100 mg/kg, po after 12 hrs (reference value: 30%); type: functional

Orexin/Hypocretin receptor type 1, sequence (O43613 whole entry, looked up): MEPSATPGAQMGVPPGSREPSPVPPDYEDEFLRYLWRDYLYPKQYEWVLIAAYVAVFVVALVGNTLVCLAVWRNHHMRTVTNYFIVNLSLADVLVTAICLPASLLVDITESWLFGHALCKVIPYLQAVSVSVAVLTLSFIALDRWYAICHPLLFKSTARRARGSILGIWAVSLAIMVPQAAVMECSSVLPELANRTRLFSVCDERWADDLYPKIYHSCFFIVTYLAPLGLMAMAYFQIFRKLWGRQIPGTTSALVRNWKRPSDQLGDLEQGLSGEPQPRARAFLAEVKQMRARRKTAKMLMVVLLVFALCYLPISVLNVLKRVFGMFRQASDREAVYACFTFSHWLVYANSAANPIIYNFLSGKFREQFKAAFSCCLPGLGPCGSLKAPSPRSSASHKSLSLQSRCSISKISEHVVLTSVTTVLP
T3 sequence (P08684 whole entry): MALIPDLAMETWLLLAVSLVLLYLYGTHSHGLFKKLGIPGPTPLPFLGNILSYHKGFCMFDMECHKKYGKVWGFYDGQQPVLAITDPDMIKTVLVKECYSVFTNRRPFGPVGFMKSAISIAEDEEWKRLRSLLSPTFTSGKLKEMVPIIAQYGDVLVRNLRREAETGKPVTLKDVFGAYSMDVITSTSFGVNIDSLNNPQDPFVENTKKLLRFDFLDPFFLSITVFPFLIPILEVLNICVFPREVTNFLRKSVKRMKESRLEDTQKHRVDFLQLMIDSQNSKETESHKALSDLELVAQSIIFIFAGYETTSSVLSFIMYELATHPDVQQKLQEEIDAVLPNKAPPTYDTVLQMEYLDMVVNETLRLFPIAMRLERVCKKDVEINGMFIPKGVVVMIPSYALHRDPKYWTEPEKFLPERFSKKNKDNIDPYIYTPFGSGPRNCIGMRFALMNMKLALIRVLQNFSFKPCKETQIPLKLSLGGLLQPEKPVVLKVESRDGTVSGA
Orexin receptor type 2, sequence (O43614 whole entry, looked up): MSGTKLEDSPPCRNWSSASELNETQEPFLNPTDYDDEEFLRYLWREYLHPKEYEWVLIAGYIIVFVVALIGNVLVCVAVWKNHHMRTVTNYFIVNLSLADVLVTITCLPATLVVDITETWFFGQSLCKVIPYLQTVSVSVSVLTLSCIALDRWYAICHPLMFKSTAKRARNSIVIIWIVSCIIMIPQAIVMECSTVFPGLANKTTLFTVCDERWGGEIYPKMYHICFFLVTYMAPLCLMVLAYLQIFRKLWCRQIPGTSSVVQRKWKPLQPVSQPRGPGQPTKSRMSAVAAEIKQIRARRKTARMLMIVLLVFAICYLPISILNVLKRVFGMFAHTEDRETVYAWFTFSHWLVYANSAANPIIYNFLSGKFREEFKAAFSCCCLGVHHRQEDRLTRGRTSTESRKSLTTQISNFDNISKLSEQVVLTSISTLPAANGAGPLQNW
T1 sequence (P10635 whole entry): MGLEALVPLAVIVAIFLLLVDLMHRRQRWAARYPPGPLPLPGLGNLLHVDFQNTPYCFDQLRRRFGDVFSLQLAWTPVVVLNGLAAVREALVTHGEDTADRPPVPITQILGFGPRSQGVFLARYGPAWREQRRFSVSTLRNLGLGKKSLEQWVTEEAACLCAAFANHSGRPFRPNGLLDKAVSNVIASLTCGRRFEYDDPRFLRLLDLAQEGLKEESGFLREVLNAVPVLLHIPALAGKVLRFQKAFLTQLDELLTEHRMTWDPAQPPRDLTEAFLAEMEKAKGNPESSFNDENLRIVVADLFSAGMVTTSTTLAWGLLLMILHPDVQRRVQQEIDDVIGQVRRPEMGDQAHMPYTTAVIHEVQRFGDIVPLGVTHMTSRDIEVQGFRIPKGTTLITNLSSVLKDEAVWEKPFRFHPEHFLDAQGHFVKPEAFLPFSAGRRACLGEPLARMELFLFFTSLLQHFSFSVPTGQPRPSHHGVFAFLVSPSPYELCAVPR
T2 sequence (P11712 whole entry): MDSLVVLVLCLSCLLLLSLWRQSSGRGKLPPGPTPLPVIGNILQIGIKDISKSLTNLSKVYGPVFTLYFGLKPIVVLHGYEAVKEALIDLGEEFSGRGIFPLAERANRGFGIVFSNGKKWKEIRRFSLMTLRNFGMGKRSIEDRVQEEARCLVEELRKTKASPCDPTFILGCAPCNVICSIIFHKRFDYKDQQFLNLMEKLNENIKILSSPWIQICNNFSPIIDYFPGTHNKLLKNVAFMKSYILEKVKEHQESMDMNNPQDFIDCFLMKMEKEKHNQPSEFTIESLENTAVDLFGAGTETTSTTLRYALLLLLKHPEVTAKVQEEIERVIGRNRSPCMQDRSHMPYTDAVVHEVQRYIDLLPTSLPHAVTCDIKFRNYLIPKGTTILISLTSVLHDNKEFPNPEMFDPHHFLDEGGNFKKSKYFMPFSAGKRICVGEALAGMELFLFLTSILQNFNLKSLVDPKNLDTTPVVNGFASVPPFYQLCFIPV

IC50 (Cytochrome P450 3A4 [12])	microsomal CLint at 1 µM [16]	IC50 [22]	SMILES	also measured
> 50 µM	102 µL/min/mg	–	COc1cccc(F)c1[C@@H]1C[C@@H](O)C(=O)N1Cc1ccc2oc3ccccc3c2c1	Kp at 3 h [1]: 2.3; Activity (Rattus norvegicus [2]): 19.2%; Activity (Rattus norvegicus [3]): 39.2%; IC50 (Cytochrome P450 2D6 [4]): 47 µM; inhibition in vivo at 100 mg/kg (Rattus norvegicus [5]): 20%; Activity (Rattus norvegicus [6]): 38%; inhibition in vivo at 100 mg/kg (Rattus norvegicus [7]): 35%; microsomal CLint at 1 µM [8]: > 1250 µL/min/mg; IC50 (Cytochrome P450 2C9 [9]): 9.4 µM; Activity (Rattus norvegicus [10]): 7.1%; Papp A→B (MDR1 [11]): 12.5 ×10⁻⁶ cm/s; TDI (Cytochrome P450 2C9 [13]): Not Active; Papp B→A (MDR1 [14]): 26.6 ×10⁻⁶ cm/s; Activity (Rattus norvegicus [15]): 20%; TDI (Cytochrome P450 2D6 [17]): Not Active; IC50 (Cytochrome P450 3A4 [18]): > 50 µM; TDI (Cytochrome P450 3A4 [19]): Not Active; Activity (Rattus norvegicus [20]): 34.4%; concentration at 3 h [21]: 585 ng/g
46 µM	96 µL/min/mg	–	COc1cccc(F)c1C1C[C@@H](O)C(=O)N1Cc1ccc2oc3ccccc3c2c1 (mixture of isomers)	–
8.7 µM	–	–	COc1cccc(OC)c1[C@@H]1C[C@H](C)C(=O)N1Cc1ccc(OC(F)(F)F)cc1 (racemic)	–
–	257 µL/min/mg	–	COc1cccc(OC)c1[C@@H]1C[C@@H](C)C(=O)N1Cc1ccc(OC(F)(F)F)cc1 (racemic)	–
–	–	3.61 µM	CC[C@H]1C[C@@H](c2c(OC)cccc2OC)N(Cc2ccc(OC(F)(F)F)cc2)C1=O (racemic)	–
6.6 µM	277 µL/min/mg	0.041 µM	COc1cccc(OC)c1[C@@H]1C[C@H](Cl)C(=O)N1Cc1ccc(OC(F)(F)F)cc1 (racemic)	–
–	–	0.563 µM	COc1cccc(OC)c1[C@@H]1C[C@@H](Cl)C(=O)N1Cc1ccc(OC(F)(F)F)cc1 (racemic)	–
–	233 µL/min/mg	–	COc1cccc(OC)c1[C@@H]1C[C@H](F)C(=O)N1Cc1ccc(OC(F)(F)F)cc1 (racemic)	Kp at 3 h [1]: 3.1; fraction unbound at 3 h [23]: 0.01; concentration at 3 h [24]: 87 ng/mL; concentration at 3 h [21]: 270 ng/g
5.2 µM	232 µL/min/mg	–	COc1cccc(OC)c1C1CC(F)(F)C(=O)N1Cc1ccc(OC(F)(F)F)cc1 (racemic)	–
25 µM	142 µL/min/mg	–	COc1cccc(OC)c1[C@@H]1C[C@@H](O)C(=O)N1Cc1ccc(OC(F)(F)F)cc1 (racemic)	–
1.4 µM	–	0.168 µM	COc1cccc(OC)c1[C@@H]1C[C@H](OC)C(=O)N1Cc1ccc(OC(F)(F)F)cc1 (racemic)	–
–	–	> 10 µM	CCO[C@H]1C[C@@H](c2c(OC)cccc2OC)N(Cc2ccc(OC(F)(F)F)cc2)C1=O (racemic)	IC50 (Orexin receptor type 2): 3.96 µM
–	–	6.94 µM	COc1cccc(OC)c1[C@@H]1C[C@@H](OC)C(=O)N1Cc1ccc(OC(F)(F)F)cc1 (racemic)	–
–	–	9.49 µM	COc1cccc(OC)c1[C@@H]1C[C@H](N)C(=O)N1Cc1ccc(OC(F)(F)F)cc1 (racemic)	IC50 (Orexin receptor type 2): 7.03 µM
–	–	2.05 µM	COc1cccc(OC)c1[C@@H]1C[C@@H](N)C(=O)N1Cc1ccc(OC(F)(F)F)cc1 (racemic)	IC50 (Orexin receptor type 2): 1.98 µM
–	–	> 10 µM	CN[C@H]1C[C@@H](c2c(OC)cccc2OC)N(Cc2ccc(OC(F)(F)F)cc2)C1=O (racemic)	IC50 (Orexin receptor type 2): 5.78 µM
–	–	5.81 µM	CN[C@@H]1C[C@@H](c2c(OC)cccc2OC)N(Cc2ccc(OC(F)(F)F)cc2)C1=O (racemic)	IC50 (Orexin receptor type 2): 2.4 µM
–	–	8.3 µM	COc1cccc(OC)c1[C@@H]1C[C@H](N(C)C)C(=O)N1Cc1ccc(OC(F)(F)F)cc1 (racemic)	IC50 (Orexin receptor type 2): 8.72 µM
–	–	> 10 µM	COc1cccc(OC)c1[C@@H]1C[C@@H](N(C)C)C(=O)N1Cc1ccc(OC(F)(F)F)cc1 (racemic)	IC50 (Orexin receptor type 2): 3.62 µM
6.9 µM	577 µL/min/mg	–	COc1cccc(OC)c1C1CCC(=O)N1Cc1ccc2oc3ccccc3c2c1 (racemic)	–
8.8 µM	363 µL/min/mg	–	COc1cccc(OC)c1[C@@H]1C[C@H](F)C(=O)N1Cc1ccc2oc3ccccc3c2c1 (racemic)	–
–	–	0.005 µM	COc1cccc(OC)c1[C@@H]1C[C@H](Cl)C(=O)N1Cc1ccc2oc3ccccc3c2c1 (racemic)	–
–	128 µL/min/mg	0.004 µM	COc1cccc(OC)c1[C@@H]1C[C@@H](O)C(=O)N1Cc1ccc2oc3ccccc3c2c1 (racemic)	–
21 µM	349 µL/min/mg	–	COc1cccc(F)c1[C@@H]1C[C@H](F)C(=O)N1Cc1ccc2oc3ccccc3c2c1 (racemic)	–
–	–	–	CNC(=O)[C@@H](c1ccccc1)N1CCc2cc(OC)c(OC)cc2[C@@H]1CCc1ccc(C(F)(F)F)cc1 [ALMOREXANT]	Activity (Rattus norvegicus [25]): 31%; Activity (Rattus norvegicus [26]): 38.5%; inhibition in vivo at 100 mg/kg (Rattus norvegicus [7]): 43%; Activity (Rattus norvegicus [27]): 6.5%; Activity (Rattus norvegicus [28]): 24%
